These results are taken from article doi:10.1101/2021.03.24.436736v2 (biorxiv, 2023).

The term IC50 denotes the midpoint of a concentration-inhibition curve. A higher IC50 goes with lower potency.

For assay [1], the target named is T1, PxRDL2 (Plutella xylostella, UniProt C0L7I7).
T1 sequence (C0L7I7 30-520): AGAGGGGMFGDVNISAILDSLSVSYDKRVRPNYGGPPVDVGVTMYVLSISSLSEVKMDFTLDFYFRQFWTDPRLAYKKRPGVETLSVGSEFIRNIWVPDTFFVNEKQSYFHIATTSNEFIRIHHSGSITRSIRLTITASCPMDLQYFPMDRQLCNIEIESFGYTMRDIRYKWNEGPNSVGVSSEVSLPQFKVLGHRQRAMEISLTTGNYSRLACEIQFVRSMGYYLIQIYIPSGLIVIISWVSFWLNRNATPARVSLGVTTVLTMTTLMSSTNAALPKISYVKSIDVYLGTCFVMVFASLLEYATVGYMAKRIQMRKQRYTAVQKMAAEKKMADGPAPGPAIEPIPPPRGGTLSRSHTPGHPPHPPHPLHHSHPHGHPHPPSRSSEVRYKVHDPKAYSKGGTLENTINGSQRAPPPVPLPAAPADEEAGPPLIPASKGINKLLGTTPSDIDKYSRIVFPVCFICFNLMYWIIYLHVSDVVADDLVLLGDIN
In words: cell-based. On the set-up: species or system Xenopus laevis oocytes.

Assay [2] addresses T2, PxRDL1 (Plutella xylostella, UniProt C0L7I5).
T2 sequence (C0L7I5 26-485): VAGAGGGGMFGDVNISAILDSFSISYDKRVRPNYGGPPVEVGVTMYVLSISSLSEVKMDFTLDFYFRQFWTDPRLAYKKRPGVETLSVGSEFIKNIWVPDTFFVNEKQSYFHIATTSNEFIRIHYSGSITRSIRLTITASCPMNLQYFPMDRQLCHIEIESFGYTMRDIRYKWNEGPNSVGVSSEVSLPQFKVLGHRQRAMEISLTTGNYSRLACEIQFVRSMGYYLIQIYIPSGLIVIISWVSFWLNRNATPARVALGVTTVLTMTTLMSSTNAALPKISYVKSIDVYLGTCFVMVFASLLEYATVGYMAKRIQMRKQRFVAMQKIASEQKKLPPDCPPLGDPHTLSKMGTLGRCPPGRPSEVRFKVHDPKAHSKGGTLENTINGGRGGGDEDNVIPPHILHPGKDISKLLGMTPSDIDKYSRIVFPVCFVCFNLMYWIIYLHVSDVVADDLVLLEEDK
The experiment in a line: two-electrode voltage clamp, Xenopus laevis oocytes. The class given is cell-based. On the technique in general: In two-electrode clamp one electrode senses voltage and the other passes current.

For assay [3], the target named is T1, PxRDL2. The description is as above. The class given is cell-based.

Each structure is given as a SMILES string.

For `CCOC(=O)C1(C(=O)OCC)Nc2c([S+]([O-])C(F)(F)F)c(C#N)nn2-c2c(Cl)cc(C(F)(F)F)cc21` (stereo not drawn) [4a, diethyl 9-chloro-2-cyano-7-(trifluoromethyl)-3-((trifluoromethyl)sulfinyl)pyrazolo[1,5-α]quin azoline-5,5(4H)-dicarboxylate], the IC50 in assay [1] was > 30000 nM; in assay [2], 2020 nM.

On to `Cc1cc(C2=NOC(c3cc(Cl)cc(Cl)c3)(C(F)(F)F)C2)ccc1C(=O)NCC(=O)NCC(F)(F)F` (stereo not drawn) [fluralaner, 4-[5-(3,5-dichlorophenyl)-5-(trifluoromethyl)-4H-1,2-oxazol-3-yl]-2-methyl-N-[2-oxo-2-(2,2,2-trifluoroethylamino)ethyl]benzamide], for which the IC50 in assay [3] was 18 nM; in assay [2], 10 nM.

Consider `CON=CNC(=O)c1ccc(C2=NOC(c3cc(Cl)cc(Cl)c3)(C(F)(F)F)C2)cc1C` (stereo not drawn) [fluxametamide, 4-[5-(3,5-dichlorophenyl)-5-(trifluoromethyl)-4H-1,2-oxazol-3-yl]-N-[(E)-methoxyiminomethyl]-2-methylbenzamide], for which the values for the IC50 in assay [3] and in assay [2] were 17 nM and 20 nM, respectively.
